Measured values reported in ChEMBL document CHEMBL1201862, “PubChem BioAssay data set” (2004).
Active and inactive are the calls of the source.

Experiments:
Cytochrome P450 2C9 = Cytochrome P450 2C9 (Homo sapiens, UniProt P11712)
Nonstructural protein 1 = Nonstructural protein 1 (Influenza A virus, UniProt Q194T2); assay type: functional, Influenza A virus (A/California/07/2009(H1N1))
[1] = control 3'UTR Renilla luciferase suppression, dose response, counter-screen for Shn3 inhibitor project, cell-based, Clone20-Shn3RL, cherry-picked (AID 624133); assay type: functional
[2] = Shn3 3'UTR reporter inhibitors, dose response, cell-based, Clone20 osteoblasts, firefly luciferase, cherry-picked (AID 624132); assay type: functional;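 note: firefly luciferase luminescence from reporter carrying the Shn3 3'UTR in osteoblasts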
[3] = target: Heat shock protein HSP 90-alpha (Homo sapiens, UniProt P07900); assay type: functional, organism-based
[4] = target: Dual specificity tyrosine-phosphorylation-regulated kinase 1A (Rattus norvegicus, UniProt Q63470); assay type: biochemical, Homo sapiens
[5] = target: DNA dC->dU-editing enzyme APOBEC-3A (Homo sapiens, UniProt P31941); experiment: Dose Response confirmation of small molecule APOBEC3A DNA Deaminase Inhibitors via a fluorescence-based single-stranded DNA deaminase assay. [Related pubchem assays (depositor defined):AID493011, AID493024]; assay type: functional
[6] = target: DNA dC->dU-editing enzyme APOBEC-3G (Homo sapiens, UniProt Q9HC16); assay type: functional;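 note: Dose-response counterscreen measuring inhibition of APOBEC3G DNA deaminase activity, run while confirming APOBEC3A inhibitors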
[7] = target: T1, Carboxy-terminal domain RNA polymerase II polypeptide A small phosphatase 1 (Homo sapiens, UniProt Q9GZU7); experiment: inhibitors of CTDSP1, concentration-response testing, biochemical assay, absorbance-based, actives from ultra-high-throughput screening (AID 540297); assay type: functional
T1 sequence (Q9GZU7 whole entry): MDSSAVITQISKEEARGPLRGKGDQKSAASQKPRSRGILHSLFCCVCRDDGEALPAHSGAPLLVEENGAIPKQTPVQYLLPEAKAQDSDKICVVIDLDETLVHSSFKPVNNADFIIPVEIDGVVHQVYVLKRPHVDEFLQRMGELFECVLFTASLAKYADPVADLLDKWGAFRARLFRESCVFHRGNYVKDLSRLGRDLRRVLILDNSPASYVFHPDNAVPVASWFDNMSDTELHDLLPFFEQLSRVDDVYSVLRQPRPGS

cells [8] = assay type: functional, cell-based
Genome polyprotein = Genome polyprotein (dengue virus type 2, UniProt P29990); experiment: Dengue-2 NS5 methyltransferase inhibitors, primary screen, biochemical, confirmation dose response (AID 588689); assay type: functional
[9] = Luminescence Cell-Based Dose Retest to Confirm Inhibitors of Cancer Stem Cells. [Related pubchem assays (depositor defined):AID2717, AID2721]; assay type: functional; settings: Homo sapiens
[10] = cytotoxicity in HEK-293T cells, dose response, cytotoxicity control for TCR NF-kB inhibitor project, luminescence, T-cell screen hits (AID 489026); assay type: functional, cell-based;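 note: cells exposed to compound about 14 hours before the viability readout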
Vero = experiment: cells; assay type: functional; settings: Chlorocebus sabaeus
[11] = cytotoxicity toward NIH3T3 fibroblasts, dose response, counter-screen, cell-based, ATP luminescence, mouse fibroblasts (AID 2010); assay type: functional;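 note: cells exposed to compound for about 90 hours before reading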
INS1 = experiment: beta cell apoptosis inhibitors, cytokine rescue, dose response, luminescence, retest (AID 449756); assay type: functional, cell-based; settings: Rattus norvegicus;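 note: cell death triggered by IL-1 beta plus TNF-alpha plus IFN-gamma mixture; protective hits raise ATP signal compared with cytokine alone wells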
[12] = C. albicans growth with fluconazole, confirmation, fluorescence, retest (AID 2467); assay type: functional, cell-based
[13] = NIH-3T3 fibroblast cytotoxicity, dose response, cytotoxicity control, cell-based, fluorescence, Alamar Blue, secondary assay (AID 2327); assay type: functional;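 note: NIH-3T3 mouse fibroblasts cultured with fluconazole at 8 µg/mL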
[14] = inhibitors of intracellular T. cruzi replication, confirmation, NIH3T3 host cells, beta-gal luminescence (AID 2044); assay type: functional, cell-based;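 note: intracellular parasites grown in NIH/3T3 mouse fibroblasts as host cells; luminescent beta-galactosidase reporter signal from transgenic T. cruzi replicating inside host cells; inhibitors lower the luminescence signal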
[15] = target: T2, Microphthalmia-associated transcription factor (Homo sapiens, UniProt O75030); experiment: TRPM1 promoter luciferase signal decrease, dose response, MITF inhibitor project, cell-based, SK-MEL-5, cherry-picked, set 3 (AID 493073); assay type: functional
T2 sequence (O75030 whole entry): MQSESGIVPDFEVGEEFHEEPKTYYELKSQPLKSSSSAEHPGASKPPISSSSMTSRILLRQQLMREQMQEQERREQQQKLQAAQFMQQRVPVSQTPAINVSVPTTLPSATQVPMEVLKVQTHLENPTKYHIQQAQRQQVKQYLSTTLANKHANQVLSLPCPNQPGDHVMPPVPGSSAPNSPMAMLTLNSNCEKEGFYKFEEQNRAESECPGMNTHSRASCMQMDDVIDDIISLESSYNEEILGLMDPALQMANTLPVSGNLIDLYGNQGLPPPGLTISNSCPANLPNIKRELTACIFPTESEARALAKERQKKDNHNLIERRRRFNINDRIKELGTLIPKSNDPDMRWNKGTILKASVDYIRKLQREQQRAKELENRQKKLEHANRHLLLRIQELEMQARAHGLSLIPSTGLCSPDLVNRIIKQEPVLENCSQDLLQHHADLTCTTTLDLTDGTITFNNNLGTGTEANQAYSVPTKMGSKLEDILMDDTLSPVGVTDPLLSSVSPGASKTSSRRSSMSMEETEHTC

[16] = target: Eukaryotic translation initiation factor 4E (Mus musculus, UniProt P63073); experiment: eIF4E–eIF4G protein interaction inhibitors, dose response, biochemical, TR-FRET (AID 855); assay type: functional;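 note: potency for disrupting eIF4E binding to eIF4GI seen as loss of FRET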
Cytochrome P450 1A2 = target: T3, Cytochrome P450 1A2 (Homo sapiens, UniProt P05177);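 note: PubChem cytochrome P450 panel assay, CYP1A2 panel member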
T3 sequence (P05177 whole entry): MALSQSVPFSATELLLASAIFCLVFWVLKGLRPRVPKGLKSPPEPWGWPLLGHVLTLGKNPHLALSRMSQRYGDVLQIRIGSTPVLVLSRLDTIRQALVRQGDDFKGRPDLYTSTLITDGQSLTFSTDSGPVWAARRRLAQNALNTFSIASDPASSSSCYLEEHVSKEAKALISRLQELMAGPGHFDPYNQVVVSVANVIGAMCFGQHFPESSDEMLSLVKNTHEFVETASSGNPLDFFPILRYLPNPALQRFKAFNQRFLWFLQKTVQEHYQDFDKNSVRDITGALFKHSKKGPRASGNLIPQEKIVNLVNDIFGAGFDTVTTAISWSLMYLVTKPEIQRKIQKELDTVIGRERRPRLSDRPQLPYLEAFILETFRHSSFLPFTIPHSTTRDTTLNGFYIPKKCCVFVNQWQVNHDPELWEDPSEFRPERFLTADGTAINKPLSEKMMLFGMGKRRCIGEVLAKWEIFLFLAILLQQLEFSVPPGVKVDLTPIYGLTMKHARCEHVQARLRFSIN

Protein skinhead-1 = target: T4, Protein skinhead-1 (Caenorhabditis elegans, UniProt P34707); assay type: functional
T4 sequence (P34707 whole entry): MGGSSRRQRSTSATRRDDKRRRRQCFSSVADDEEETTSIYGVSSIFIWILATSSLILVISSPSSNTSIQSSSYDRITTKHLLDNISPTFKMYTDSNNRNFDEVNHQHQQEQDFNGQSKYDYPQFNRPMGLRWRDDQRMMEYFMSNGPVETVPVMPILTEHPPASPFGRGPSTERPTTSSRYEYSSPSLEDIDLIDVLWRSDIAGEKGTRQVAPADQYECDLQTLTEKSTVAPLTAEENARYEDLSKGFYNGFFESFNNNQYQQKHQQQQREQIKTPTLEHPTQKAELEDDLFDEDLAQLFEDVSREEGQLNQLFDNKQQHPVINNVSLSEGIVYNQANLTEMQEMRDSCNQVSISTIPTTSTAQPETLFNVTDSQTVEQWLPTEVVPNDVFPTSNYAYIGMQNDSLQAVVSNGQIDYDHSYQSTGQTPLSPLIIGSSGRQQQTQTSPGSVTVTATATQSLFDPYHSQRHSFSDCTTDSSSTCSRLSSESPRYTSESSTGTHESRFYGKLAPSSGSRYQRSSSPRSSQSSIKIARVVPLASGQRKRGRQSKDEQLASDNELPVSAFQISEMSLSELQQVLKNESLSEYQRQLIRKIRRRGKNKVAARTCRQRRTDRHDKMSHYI

Streptokinase A = target: T5, Streptokinase A (Streptococcus pyogenes serotype M1, UniProt P10520); experiment: S. pyogenes streptokinase expression inhibitors, potency, dose response, plasminogen activation absorbance, OD405 (AID 1914); assay type: functional, Streptococcus pyogenes M1 GAS;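 note: secreted streptokinase activity via plasminogen activation per viability signal from cell pellet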
T5 sequence (P10520 whole entry): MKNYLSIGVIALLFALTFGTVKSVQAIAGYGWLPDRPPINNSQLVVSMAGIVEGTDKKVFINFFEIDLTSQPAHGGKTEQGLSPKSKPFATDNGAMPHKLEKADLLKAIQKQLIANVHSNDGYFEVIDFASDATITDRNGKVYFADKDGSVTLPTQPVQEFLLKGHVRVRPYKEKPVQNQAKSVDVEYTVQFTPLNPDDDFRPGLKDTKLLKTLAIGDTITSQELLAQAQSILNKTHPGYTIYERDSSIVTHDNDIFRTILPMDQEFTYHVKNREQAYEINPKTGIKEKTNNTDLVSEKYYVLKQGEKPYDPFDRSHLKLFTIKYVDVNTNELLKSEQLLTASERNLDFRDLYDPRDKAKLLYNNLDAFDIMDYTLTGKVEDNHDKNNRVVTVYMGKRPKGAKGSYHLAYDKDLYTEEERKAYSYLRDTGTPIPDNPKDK

[17] = HEp-2 cell cytotoxicity, dose response, cytotoxicity control for RSV inhibitor project, HTS (AID 2410); assay type: functional; settings: human respiratory syncytial virus
Streptococcus = experiment: Group A Streptococcus viability loss, dose response, counter-screen for streptokinase expression inhibitor project, luminescence, BacTiterGlo (AID 1915); assay type: functional, organism-based;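 note: potency for reduction of bacterial viability or growth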
[18] = system: Streptococcus sp. 'group A'; experiment: growth inhibition of control SK(-) GAS strain, dose response, counter-screen for streptokinase expression inhibitor project, luminescence, kanamycin, BacTiterGlo, confirmation (AID 1900); assay type: functional, organism-based
cells [19] = assay type: functional
[20] = Vero E6 cell cytotoxicity, dose response, cytotoxicity control for non-replicating M. tuberculosis project, secondary assay (AID 492998); assay type: functional, VeroE6; settings: Vero C1008
[21] = THP-1 cell cytotoxicity, dose response, cytotoxicity control for non-replicating M. tuberculosis project (AID 489025); assay type: functional
Cytochrome P450 2D6 = Cytochrome P450 2D6 (Homo sapiens, UniProt P10635);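 note: CYP2D6 member of a cytochrome P450 panel assay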
Cytochrome P450 2D6, sequence (P10635 whole entry): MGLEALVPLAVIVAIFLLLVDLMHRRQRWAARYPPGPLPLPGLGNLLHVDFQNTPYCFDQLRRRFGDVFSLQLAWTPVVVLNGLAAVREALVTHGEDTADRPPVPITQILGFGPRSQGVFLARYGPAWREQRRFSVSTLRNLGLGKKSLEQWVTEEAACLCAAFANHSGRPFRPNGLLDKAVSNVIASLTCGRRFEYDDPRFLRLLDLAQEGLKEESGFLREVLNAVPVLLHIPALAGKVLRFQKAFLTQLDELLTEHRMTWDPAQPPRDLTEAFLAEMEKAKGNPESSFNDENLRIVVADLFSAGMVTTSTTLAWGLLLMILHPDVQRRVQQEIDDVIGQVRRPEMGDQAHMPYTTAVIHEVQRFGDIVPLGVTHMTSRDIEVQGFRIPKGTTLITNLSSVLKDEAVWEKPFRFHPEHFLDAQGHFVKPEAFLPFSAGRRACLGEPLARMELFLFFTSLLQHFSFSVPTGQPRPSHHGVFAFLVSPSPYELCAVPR

Genome polyprotein, sequence (P29990 2492-3391 limits assumed): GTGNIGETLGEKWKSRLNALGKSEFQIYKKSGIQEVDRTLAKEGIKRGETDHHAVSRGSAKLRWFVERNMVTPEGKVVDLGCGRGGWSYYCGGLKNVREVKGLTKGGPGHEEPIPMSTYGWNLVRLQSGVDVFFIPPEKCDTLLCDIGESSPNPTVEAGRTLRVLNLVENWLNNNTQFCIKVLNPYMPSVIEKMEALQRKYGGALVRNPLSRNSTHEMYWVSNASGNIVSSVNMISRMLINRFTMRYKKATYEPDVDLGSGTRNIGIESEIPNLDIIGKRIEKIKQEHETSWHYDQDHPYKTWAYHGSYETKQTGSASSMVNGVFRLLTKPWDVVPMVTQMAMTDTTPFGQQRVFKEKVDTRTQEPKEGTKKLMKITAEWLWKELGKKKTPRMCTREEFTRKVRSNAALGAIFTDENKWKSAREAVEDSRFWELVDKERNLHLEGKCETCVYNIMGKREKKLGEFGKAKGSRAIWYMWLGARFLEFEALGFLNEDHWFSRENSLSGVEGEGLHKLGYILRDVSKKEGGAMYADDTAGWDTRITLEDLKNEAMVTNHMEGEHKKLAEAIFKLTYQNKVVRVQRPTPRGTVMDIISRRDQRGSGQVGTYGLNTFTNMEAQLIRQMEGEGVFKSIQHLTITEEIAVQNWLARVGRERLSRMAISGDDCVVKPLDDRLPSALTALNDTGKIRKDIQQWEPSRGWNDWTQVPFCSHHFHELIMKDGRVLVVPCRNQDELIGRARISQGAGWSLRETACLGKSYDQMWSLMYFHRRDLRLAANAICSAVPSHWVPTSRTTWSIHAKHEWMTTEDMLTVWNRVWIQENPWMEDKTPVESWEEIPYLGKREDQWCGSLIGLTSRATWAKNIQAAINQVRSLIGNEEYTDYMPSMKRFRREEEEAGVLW
Nonstructural protein 1, sequence (Q194T2 whole entry): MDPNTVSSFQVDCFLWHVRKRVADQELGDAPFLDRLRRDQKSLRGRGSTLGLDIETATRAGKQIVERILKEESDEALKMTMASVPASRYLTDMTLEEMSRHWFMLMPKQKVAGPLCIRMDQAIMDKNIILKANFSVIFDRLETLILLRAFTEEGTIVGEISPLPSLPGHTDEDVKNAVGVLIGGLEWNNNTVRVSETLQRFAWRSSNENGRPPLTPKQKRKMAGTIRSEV
Cytochrome P450 2C9, sequence (P11712 whole entry): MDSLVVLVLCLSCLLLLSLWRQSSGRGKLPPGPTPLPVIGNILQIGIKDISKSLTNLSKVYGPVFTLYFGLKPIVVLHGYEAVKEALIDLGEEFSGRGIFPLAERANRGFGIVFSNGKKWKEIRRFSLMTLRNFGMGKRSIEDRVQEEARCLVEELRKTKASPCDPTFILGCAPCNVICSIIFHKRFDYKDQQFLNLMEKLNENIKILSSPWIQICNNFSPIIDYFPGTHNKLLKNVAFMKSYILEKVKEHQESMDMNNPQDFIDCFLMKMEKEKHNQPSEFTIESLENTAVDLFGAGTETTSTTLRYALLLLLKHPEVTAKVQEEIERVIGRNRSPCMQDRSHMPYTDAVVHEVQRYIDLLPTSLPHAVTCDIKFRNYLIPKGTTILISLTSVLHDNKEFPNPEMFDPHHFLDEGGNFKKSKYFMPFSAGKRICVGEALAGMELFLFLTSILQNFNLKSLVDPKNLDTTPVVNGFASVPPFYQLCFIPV
Eukaryotic translation initiation factor 4E, sequence (P63073 whole entry): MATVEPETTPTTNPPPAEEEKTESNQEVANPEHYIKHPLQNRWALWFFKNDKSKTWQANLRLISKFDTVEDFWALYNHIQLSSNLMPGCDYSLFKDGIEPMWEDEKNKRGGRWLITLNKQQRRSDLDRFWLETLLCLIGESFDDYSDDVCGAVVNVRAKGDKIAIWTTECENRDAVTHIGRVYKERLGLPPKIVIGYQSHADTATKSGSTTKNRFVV
DNA dC->dU-editing enzyme APOBEC-3G, sequence (Q9HC16 whole entry, the tested form may be a part): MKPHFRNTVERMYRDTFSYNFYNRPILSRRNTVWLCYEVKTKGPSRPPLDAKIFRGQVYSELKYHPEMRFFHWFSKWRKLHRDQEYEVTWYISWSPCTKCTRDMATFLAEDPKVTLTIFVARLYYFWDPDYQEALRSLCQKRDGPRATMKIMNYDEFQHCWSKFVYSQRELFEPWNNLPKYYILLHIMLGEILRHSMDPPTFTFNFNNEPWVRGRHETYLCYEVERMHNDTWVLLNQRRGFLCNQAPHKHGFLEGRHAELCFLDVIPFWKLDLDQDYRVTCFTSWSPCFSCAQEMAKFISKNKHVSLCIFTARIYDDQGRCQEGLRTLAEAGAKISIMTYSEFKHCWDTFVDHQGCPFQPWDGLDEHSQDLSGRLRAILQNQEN
DNA dC->dU-editing enzyme APOBEC-3A, sequence (P31941 whole entry): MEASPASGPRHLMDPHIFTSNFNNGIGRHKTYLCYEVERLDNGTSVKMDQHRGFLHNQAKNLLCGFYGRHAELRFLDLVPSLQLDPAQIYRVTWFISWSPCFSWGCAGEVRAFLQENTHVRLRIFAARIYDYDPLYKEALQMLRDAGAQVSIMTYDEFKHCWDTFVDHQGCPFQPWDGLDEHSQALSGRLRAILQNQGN

CC(=O)N(C[C@@H](C)C(=O)O)c1c(I)cc(I)c(N)c1I
AC50 (Cytochrome P450 2C9): inconclusive

O=C(NCCN1CCOCC1)c1cc2sccc2n1Cc1ccc(Cl)cc1
IC50 (Nonstructural protein 1): > 100 µM (active)

N=C(Nc1nc(-c2ccccn2)cc2ccccc12)c1ccccn1
IC50 (Nonstructural protein 1): 39.6 µM (active)
AC50 [1]: < 0.26 µM (active)
AC50 [2]: < 0.26 µM (active)
AC50 [3]: 2.76 µM (active)

CC(=O)Nc1cccc(-c2cnc3ccccc3n2)c1
AC50 [4]: 6.1 µM (active)

CC(=O)OC1C2CCC1C([N+]1(C)CCCCC1)CC2 (centres undefined)
IC50 [5]: 2.69 µM (active)
IC50 [6]: 3.15 µM (active)
IC50 [7]: 4.51 µM (active)

O=c1oc2cc([N+](=O)[O-])ccc2nc1/C=C(\O)c1cccc(Br)c1
EC50 (cells [8]): > 350 µM (not active)

CCOc1ccc(NC(=O)c2oc3ccccc3c2NC(=O)CC)cc1
AC50 (Cytochrome P450 2C9): inconclusive

O=C1NC(=O)N(c2ccc(F)cc2)C(=O)/C1=C/c1ccc(N2CCOCC2)cc1
IC50 (Genome polyprotein): > 100 µM (active)

Cc1c(N/N=C2/C(=O)NC(=O)N(Cc3ccccc3)C2=O)c(=O)n(-c2ccccc2)n1C
IC50 (Nonstructural protein 1): 3.31 µM (active)

COc1ccc(N(C(=O)c2ccccc2C)S(=O)(=O)c2cccs2)cc1
AC50 [9]: 0.17 µM (active)
IC50 [10]: > 80 µM (inactive)

CCOc1cc(/C=C2\SC(N3CCCCC3)=NC2=O)ccc1O
AC50 [4]: 0.678 µM (active)

COc1cccc(/C=C2\SC(=S)N(CCC(=O)NC3C=CS(=O)(=O)C3)C2=O)c1 (centres undefined)
CC50 (Vero): 23.8 µM (active)

O=[N+]([O-])c1ccc(O)c(/C=N/c2ccc3c(c2)OCO3)c1
IC50 (Genome polyprotein): 41.9 µM (active)

CCCOCc1ccc(O)c2ncccc12
EC50 [11]: 8.03 µM (active)
AC50 (INS1): 3.29 µM (active)
EC50 [12]: 2.75 µM (active)
EC50 [13]: 16.2 µM (inconclusive)
EC50 [14]: 2.5 µM (active)
AC50 [15]: 15.5 µM (active)

Oc1ccc2ccc3[nH]cnc3c2c1
AC50 [4]: 2.47 µM (active)

Cc1cccc(-n2cnc(C(=O)NC3CCCCCC3)c2)n1
IC50 [16]: > 64 µM (inactive)
AC50 (Cytochrome P450 1A2): 11.2 µM (inconclusive)
AC50 (Cytochrome P450 2C9): inconclusive

O=C(Nc1ccc(Br)cc1Cl)c1cnccn1
IC50 (Protein skinhead-1): > 100 µM (inactive)
IC50 [7]: 4.67 µM (active)

O=C(Nc1cccc2nsnc12)c1ccc2c(c1)OCO2
AC50 [4]: 11.7 µM (active)

Cc1cc2c(cc1S(N)(=O)=O)S(=O)(=O)CCC2
AC50 (Cytochrome P450 2C9): inconclusive

COc1ccc2oc(=O)c(-c3csc(Nc4ccc(O)cc4)n3)cc2c1
EC50 (Streptokinase A): > 150 µM (not active)
CC50 [17]: 38.5 µM (active)
EC50 (Streptococcus): 13.8 µM (active)
CC50 (Vero): 13.3 µM (active)
EC50 [18]: 7.11 µM (active)

Cc1nc([N+](=O)[O-])c(Br)n1CC(=O)c1ccc(Cl)cc1
IC50 (cells [19]): 6.88 µM (active)
CC50 [20]: 13 µM (active)
CC50 [21]: 17.4 µM (active)

O=C(CCN1C(=O)C2C3C=CC(C3)C2C1=O)NCCN1CCCc2ccccc21 (centres undefined)
AC50 (Cytochrome P450 1A2): 10 µM (inconclusive)
AC50 (Cytochrome P450 2D6): 22.4 µM (inconclusive)
AC50 (Cytochrome P450 2C9): inconclusive

CCOC(=O)c1c(C)oc2c1cc(NS(=O)(=O)c1ccc(C(=O)O)cc1)c1ccccc12
IC50 (Genome polyprotein): 73.8 µM (active)

COc1cc(Nc2ccc(C)cc2)c([N+](=O)[O-])nc1[N+](=O)[O-]
EC50 [11]: > 60 µM (not active)
EC50 [14]: 3.02 µM (active)
AC50 [9]: 3.51 µM (active)
IC50 [10]: > 80 µM (inactive)

C[C@@H](Cc1cccc(C(F)(F)F)c1)NCCOC(=O)c1ccccc1
AC50 (Cytochrome P450 2C9): inconclusive

Cc1ccc(-c2cc(C(=O)N/N=C/c3ccc(Cl)cc3)[nH]n2)o1
IC50 [7]: 9.23 µM (active)

O=C(N/N=C/c1cc([N+](=O)[O-])ccc1O)C1CCCCC1
IC50 (cells [19]): 17.9 µM (active)
CC50 [20]: > 20 µM (active)
CC50 [21]: 21.4 µM (active)
